Reference: patent US9075060B2, “Methods for diagnosing oral or oral-pharyngeal cancer” (Technion Research & Development Foundation Limited, priority 2009, dated 2015)

What was measured:
[1] = molecular target: T1, TSPO (Homo sapiens, UniProt P30536); assay: [3H]PK 11195 binding to membranes of SCC-25 cells, Scatchard analysis; conditions: mean±SD, n=7
T1 construct: Assays of [^3H]; host or cells: SCC-25 and SCC-15 human oral cancer cell lines
Method: (§1) Assays of [^3H] […] After 80 minute incubation at 4° C., the samples were filtered through Whatman CF/C filters using a vacuum system, washed three times with 4 ml of 5 mM ice cold phosphate buffer and placed in vials containing 4 ml of CytoScint™ (MP Biomedicals, Costa Mesa, Calif.). Radioactivity was counted after 12 hours with a liquid scintillation analyzer. Specific binding was obtained by subtracting non-specific binding from total binding.

[2] = molecular target: T1, TSPO; assay: [3H]PK 11195 binding to membranes of SCC-15 cells, Scatchard analysis; conditions: mean±SD, n=16
Method: as §1

T1 sequence (P30536 whole entry): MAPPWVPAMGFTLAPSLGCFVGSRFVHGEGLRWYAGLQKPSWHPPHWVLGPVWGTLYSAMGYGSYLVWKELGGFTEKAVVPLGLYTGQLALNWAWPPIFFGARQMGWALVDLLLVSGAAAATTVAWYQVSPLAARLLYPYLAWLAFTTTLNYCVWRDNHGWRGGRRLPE

Bmax (maximal binding capacity) [1]: 3133±643 fmoles/mg protein
Bmax (maximal binding capacity) [2]: 6956±549 fmoles/mg protein
SMILES: CCC(C)N(C)C(=O)c1cc2ccccc2c(-c2ccccc2Cl)n1 (centres unmarked) [[^3H]PK 11195, PK 11195]
